The text below walks through data of article PMC12693633, “Synthesis and Evaluation of Radiogallium-Labeled Peptide Probes for In Vivo Imaging of Legumain Activity” (Molecules, 2025).

Structures are written as SMILES. Like-named read-outs stand apart in the source and are kept apart here. Square brackets hold non-standard residues; d marks the D form. Peptide text beside a SMILES is read from it. * marks the point of attachment. NOTA(2S-Bn(4-NHCS)) = O=C(O)CN1CCN(CC(=O)O)C[C@H](Cc2ccc(NC(=S)*)cc2)N(CC(=O)O)CC1; Cit = NC(=O)NCCC[C@H](N)C(=O)O; Ahx = NCCCCCC(=O)O

A short description of the data set: In vivo biodistribution in HCT116 tumor-bearing mice. To be noted: female, mouse, iv, total radioactivity, mean (SD), n = 5; for tissue to tissue ratio at 1 h: BALB/c nu/nu, 7.4 kBq, HCT116 tumor-bearing mice, 1 h after i.v. injection; for tissue uptake at 1 h / tissue uptake dose at 1 h: 7.4 kBq i.v. (tail vein), 1 h after injection, gamma counter; for tissue uptake dose at 1 h: stomach (whole organ), whole organ. On the procedure:
Animal experiments were conducted in accordance with our institutional guidelines and were approved by the Nagasaki University Animal Care Committee and the Kanazawa University Animal Care Committee. The animal experimental protocols were approved by the Committee on Animal Experimentation of Nagasaki University and Kanazawa University. BALB/c nu/nu mice (female; 4 weeks old) were supplied by Japan SLC (Shizuoka, Japan). The mice were maintained in a room at a constant ambient temperature and a 12/12 h light/dark cycle and were given free access to food and water. Mice were subcutaneously injected on their right shoulders with approximately 1.0 × 10^7 HCT116 cells. The tumors were allowed to reach 300–500 mm^3 (1–2 weeks after inoculation) before biodistribution studies were performed.
Each [^67Ga]Ga-NOTA-peptide (7.4 kBq) was administered to mice via tail vein injection in 100 μL of saline. The mice were euthanized 1 h after injection, and their organs were harvested. The tissues were weighed and the radioactivity in each sample was measured using an automated gamma counter (n = 5). The results are expressed as the percent injected dose per gram of tissue (%ID/g) or as %ID.

[1] abbreviates: tumor/blood, read-out: Tumor/Blood ratio.
The mark [2] stands for this setting: tumor/muscle, read-out: Tumor/Muscle ratio.
[3] abbreviates: blood, HCT116 tumor-bearing BALB/c nu/nu mice, read-out: Biodistribution, Blood.
[4] abbreviates: brain, HCT116 tumor-bearing BALB/c nu/nu mice, read-out: Biodistribution, Brain.
The mark [5] stands for this setting: heart, HCT116 tumor-bearing BALB/c nu/nu mice, read-out: Biodistribution, Heart.
[6] abbreviates: intestine, HCT116 tumor-bearing BALB/c nu/nu mice, read-out: Biodistribution, Intestine.
Setting [7] is: HCT116 tumor, BALB/c nu/nu mice, read-out: Biodistribution, Tumor.
Where [8] appears, read: kidney, HCT116 tumor-bearing BALB/c nu/nu mice, read-out: Biodistribution, Kidney.
Setting [9] is: liver, HCT116 tumor-bearing BALB/c nu/nu mice, read-out: Biodistribution, Liver.
Setting [10] is: lung, HCT116 tumor-bearing BALB/c nu/nu mice, read-out: Biodistribution, Lung.
[11] abbreviates: muscle, HCT116 tumor-bearing BALB/c nu/nu mice, read-out: Biodistribution, Muscle.
Setting [12] is: pancreas, HCT116 tumor-bearing BALB/c nu/nu mice, read-out: Biodistribution, Pancreas.
The mark [13] stands for this setting: spleen, HCT116 tumor-bearing BALB/c nu/nu mice, read-out: Biodistribution, Spleen.
Setting [14] is: HCT116 tumor-bearing BALB/c nu/nu mice.

As to `CC(=O)NCCCCCC(=O)N[C@H](CCC(=O)O)C(=O)N[C@H](CCC(=O)O)C(=O)N[C@H](CCC(=O)O)C(=O)N[C@H](CCC(=O)O)C(=O)N[C@H](CCC(=O)O)C(=O)N[C@H](CCC(=O)O)C(=O)N[C@H](CCC(=O)O)C(=O)N[C@H](CCC(=O)O)C(=O)N[C@H](CCC(=O)O)C(=O)NCCCCCC(=O)N1CCC[C@H]1C(=O)N[C@@H](C)C(=O)N[C@@H](C)C(=O)N[C@@H](CC(N)=O)C(=O)N[C@H](C(=O)NCC(=O)N[C@H](CCCNC(=N)N)C(=O)N[C@H](CCCNC(=N)N)C(=O)N[C@H](CCCNC(=N)N)C(=O)N[C@H](CCCNC(=N)N)C(=O)N[C@H](CCCNC(=N)N)C(=O)N[C@H](CCCNC(=N)N)C(=O)N[C@H](CCCNC(=N)N)C(=O)N[C@H](CCCNC(=N)N)C(=O)N[C@H](CCCNC(=N)N)C(=O)NCCCCCC(=O)N[C@H](CCCCNC(=S)Nc1ccc(C[C@H]2CN(CC(=O)O)CCN(CC(=O)O)CCN2CC(=O)O)cc1)C(N)=O)C(C)C` [[^67Ga]Ga-NOTA-LCP-1, metal not drawn] (Ac-[Ahx][dE][dE][dE][dE][dE][dE][dE][dE][dE][Ahx]PAANVG[dR][dR][dR][dR][dR][dR][dR][dR][dR][Ahx][dK](NOTA(2S-Bn(4-NHCS)))-NH2), the tissue to tissue ratio at 1 h reads like this: under setting [1], 8.29 ± 3.41; under setting [2], 3.54. The tissue uptake at 1 h under setting [3] was 0.28 %ID/g; the tissue uptake at 1 h under setting [4] was found to be 0.03 %ID/g; the tissue uptake at 1 h under setting [5] amounted to 0.53 %ID/g; the tissue uptake at 1 h under setting [6] stood at 0.44 %ID/g; the tissue uptake at 1 h under setting [7] amounted to 1.83 ± 0.32 %ID/g; the tissue uptake at 1 h under setting [8] is 129 %ID/g. Also, the tissue uptake at 1 h is 19.1 %ID/g under setting [9]; 0.93 %ID/g under setting [10]; 0.54 %ID/g under setting [11]; 0.31 %ID/g under setting [12]; 3.94 %ID/g under setting [13]. Also, the tissue uptake dose at 1 h under setting [14] is 0.18 %ID.
For the molecule `CC(=O)NCCCCCC(=O)N[C@H](CCC(=O)O)C(=O)N[C@H](CCC(=O)O)C(=O)N[C@H](CCC(=O)O)C(=O)N[C@H](CCC(=O)O)C(=O)NCCCCCC(=O)N1CCC[C@H]1C(=O)N[C@@H](C)C(=O)N[C@@H](C)C(=O)N[C@@H](CC(N)=O)C(=O)N[C@H](C(=O)NCC(=O)N[C@H](CCCNC(=N)N)C(=O)N[C@H](CCCNC(=N)N)C(=O)N[C@H](CCCNC(=N)N)C(=O)N[C@H](CCCNC(=N)N)C(=O)N[C@H](CCCNC(=N)N)C(=O)NCCCCCC(=O)N[C@H](CCCCNC(=S)Nc1ccc(C[C@H]2CN(CC(=O)O)CCN(CC(=O)O)CCN2CC(=O)O)cc1)C(N)=O)C(C)C` [[^67Ga]Ga-NOTA-LCP-3, metal not drawn] (Ac-[Ahx][dE][dE][dE][dE][Ahx]PAANVG[dR][dR][dR][dR][dR][Ahx][dK](NOTA(2S-Bn(4-NHCS)))-NH2), the tissue to tissue ratio at 1 h is, setting by setting: under setting [1], 2.2 ± 0.69; under setting [2], 2.47. Also, the tissue uptake at 1 h runs as follows: under setting [3], 0.46 %ID/g; under setting [4], 0.04 %ID/g; under setting [5], 0.44 %ID/g; under setting [6], 0.63 %ID/g; under setting [7], 0.97 ± 0.25 %ID/g; under setting [8], 96.6 %ID/g. Moreover, the tissue uptake at 1 h under setting [9] came to 17.2 %ID/g; the tissue uptake at 1 h under setting [10] was 1.58 %ID/g; the tissue uptake at 1 h under setting [11] worked out at 0.4 %ID/g; the tissue uptake at 1 h under setting [12] amounted to 0.38 %ID/g; the tissue uptake at 1 h under setting [13] stood at 4.37 %ID/g. For the same molecule, the tissue uptake dose at 1 h under setting [14] amounted to 0.19 %ID.
Take `CC(=O)NCCCCCC(=O)N[C@H](CCC(=O)O)C(=O)N[C@H](CCC(=O)O)C(=O)N[C@H](CCC(=O)O)C(=O)N[C@H](CCC(=O)O)C(=O)N[C@H](CCC(=O)O)C(=O)N[C@H](CCC(=O)O)C(=O)N[C@H](CCC(=O)O)C(=O)N[C@H](CCC(=O)O)C(=O)N[C@H](CCC(=O)O)C(=O)NCCCCCC(=O)N1CCC[C@H]1C(=O)N[C@@H](C)C(=O)N[C@@H](C)C(=O)N[C@@H](CCCNC(N)=O)C(=O)N[C@H](C(=O)NCC(=O)N[C@H](CCCNC(=N)N)C(=O)N[C@H](CCCNC(=N)N)C(=O)N[C@H](CCCNC(=N)N)C(=O)N[C@H](CCCNC(=N)N)C(=O)N[C@H](CCCNC(=N)N)C(=O)N[C@H](CCCNC(=N)N)C(=O)N[C@H](CCCNC(=N)N)C(=O)N[C@H](CCCNC(=N)N)C(=O)N[C@H](CCCNC(=N)N)C(=O)NCCCCCC(=O)N[C@H](CCCCNC(=S)Nc1ccc(C[C@H]2CN(CC(=O)O)CCN(CC(=O)O)CCN2CC(=O)O)cc1)C(N)=O)C(C)C` [[^67Ga]Ga-NOTA-NCP-1, metal not drawn] (Ac-[Ahx][dE][dE][dE][dE][dE][dE][dE][dE][dE][Ahx]PAA[Cit]VG[dR][dR][dR][dR][dR][dR][dR][dR][dR][Ahx][dK](NOTA(2S-Bn(4-NHCS)))-NH2): the tissue to tissue ratio at 1 h under setting [1] was determined as 4.39 ± 2.07 and the tissue to tissue ratio at 1 h under setting [2] is 1.91. The tissue uptake at 1 h under setting [3] amounted to 0.45 %ID/g; the tissue uptake at 1 h under setting [4] came out at 0.04 %ID/g; the tissue uptake at 1 h under setting [5] was determined as 0.43 %ID/g; the tissue uptake at 1 h under setting [6] was found to be 0.53 %ID/g; the tissue uptake at 1 h under setting [7] amounted to 1.8 ± 0.51 %ID/g; the tissue uptake at 1 h under setting [8] is 122 %ID/g. Besides, the tissue uptake at 1 h reads like this: under setting [9], 17.4 %ID/g; under setting [10], 1.08 %ID/g; under setting [11], 0.96 %ID/g; under setting [12], 0.64 %ID/g; under setting [13], 3.15 %ID/g. Further, under setting [14], the tissue uptake dose at 1 h is 0.22 %ID.
For the molecule `CC(=O)NCCCCCC(=O)N[C@H](CCC(=O)O)C(=O)N[C@H](CCC(=O)O)C(=O)N[C@H](CCC(=O)O)C(=O)N[C@H](CCC(=O)O)C(=O)NCCCCCC(=O)N1CCC[C@H]1C(=O)N[C@@H](C)C(=O)N[C@@H](C)C(=O)N[C@@H](CCCNC(N)=O)C(=O)N[C@H](C(=O)NCC(=O)N[C@H](CCCNC(=N)N)C(=O)N[C@H](CCCNC(=N)N)C(=O)N[C@H](CCCNC(=N)N)C(=O)N[C@H](CCCNC(=N)N)C(=O)N[C@H](CCCNC(=N)N)C(=O)NCCCCCC(=O)N[C@H](CCCCNC(=S)Nc1ccc(C[C@H]2CN(CC(=O)O)CCN(CC(=O)O)CCN2CC(=O)O)cc1)C(N)=O)C(C)C` [[^67Ga]Ga-NOTA-NCP-3, metal not drawn] (Ac-[Ahx][dE][dE][dE][dE][Ahx]PAA[Cit]VG[dR][dR][dR][dR][dR][Ahx][dK](NOTA(2S-Bn(4-NHCS)))-NH2), the tissue to tissue ratio at 1 h amounted to 2.54 under setting [1] and 2.7 under setting [2]. Further, the tissue uptake at 1 h amounted to 0.41 %ID/g under setting [3]; 0.04 %ID/g under setting [4]; 0.56 %ID/g under setting [5]; 0.54 %ID/g under setting [6]; 0.95 %ID/g under setting [7]; 73.3 %ID/g under setting [8]. Besides, the tissue uptake at 1 h is, setting by setting: under setting [9], 20.8 %ID/g; under setting [10], 1.36 %ID/g; under setting [11], 0.43 %ID/g; under setting [12], 0.46 %ID/g; under setting [13], 5.38 %ID/g. Besides, the tissue uptake dose at 1 h under setting [14] was found to be 0.12 %ID.
